This series addresses HSD17B13. Particulars: ASO, HepaRG.

For 32 sequences, target mRNA inhibition results are on record in the OligoGym collection.

After the bases stand the sugars from the 5' end (letter, count) and the backbone: PS all phosphorothioate, else s phosphorothioate and o phosphodiester by linkage. Methylation of C is not given here. e = 2'-O-(2-methoxyethyl) (MOE); k = constrained ethyl (cEt); d = 2'-deoxy (DNA)

Under “1 µM”, ATTAACTACTTCACTA (sugars k3 d10 k3, PS) showed a target mRNA inhibition of 14%.

On to ATTACAACCTGGTTTC (sugars k3 d10 k3, PS), for which the target mRNA inhibition (1 µM) was 50%.

For the setting “1 µM”, ATTACAGCATCAAGAC (sugars k3 d10 k3, PS) returned a target mRNA inhibition of 63%.

Take ATTATACTTTTCCGTC (sugars k3 d10 k3, PS): the target mRNA inhibition (0.02 µM) stood at 12%; the target mRNA inhibition (0.078 µM) turned out to be 0%; the target mRNA inhibition (0.313 µM) was 47%; the target mRNA inhibition (1 µM) was determined as 75%; the target mRNA inhibition (1.25 µM) is 75%; the target mRNA inhibition (5 µM) turned out to be 84%.

ATTATTATGTGATTGA (sugars k3 d10 k3, PS) returned a target mRNA inhibition (1 µM) of 39%.

ATTCATAAACATAGGC (sugars k3 d10 k3, PS) showed a target mRNA inhibition (1 µM) of 36%.

On to ATTCATAAGTAGTCTG (sugars k3 d10 k3, PS), for which the target mRNA inhibition (1 µM) came out at 35%.

For ATTCCATCTATCAGAC (sugars k3 d10 k3, PS), the target mRNA inhibition (1 µM) is 7%.

For ATTCTACACTAATATT (sugars k3 d10 k3, PS), the target mRNA inhibition (1 µM) came to 0%.

Sequence ATTCTGTGGCATGGCT (sugars k3 d10 k3, PS) came in with a target mRNA inhibition (1 µM) of 69%.

Sequence ATTGGAATGCTACTTG (sugars k3 d10 k3, PS) came in with a target mRNA inhibition (1 µM) of 53%.

On to ATTGTCTAAACATCTC (sugars k3 d10 k3, PS), for which the target mRNA inhibition is 18% (0.02 µM); 33% (0.078 µM); 58% (0.313 µM); 84% (1 µM); 83% (1.25 µM); 94% (5 µM).

Turning to ATTTAGAAACTGCTCC (sugars k3 d10 k3, PS), under “1 µM”, the target mRNA inhibition is 21%.

In turn, ATTTAGAGAGCGATAG (sugars k3 d10 k3, PS) registered a target mRNA inhibition (1 µM) of 14%.

Consider ATTTAGGGCAAACCTT (sugars k3 d10 k3, PS), for which, where the note is “1 µM”, the target mRNA inhibition was 35%.

On to ATTTAGTTGGTAGCTT (sugars k3 d10 k3, PS), for which the target mRNA inhibition (1 µM) was 35%.

Sequence ATTTGCTGCATTAATG (sugars k3 d10 k3, PS) gave a target mRNA inhibition (1 µM) of 20%.

As for ATTTTCAGATCCCGTT (sugars k3 d10 k3, PS), the target mRNA inhibition (1 µM) amounted to 67%.

Where the note is “1 µM”, “CAAAAGACTTTGAGAC (sugars k3 d9 k3 e1, PS)” gave a target mRNA inhibition of 13%.

For the setting “1 µM”, CAACGCAACAGTTTAG (sugars k3 d10 k3, PS) came in with a target mRNA inhibition of 52%.

With CAAGACAGACCAAGTA (sugars k3 d10 k3, PS), under “1 µM”, the target mRNA inhibition stood at 27%.

For the sequence CAAGAGACACCACCAG (sugars k3 d10 k3, PS), the target mRNA inhibition (1 µM) came out at 50%.

In the case of “CAAGAGGATAGTCCAT (sugars kkdddddddddkekek, PS)”, where the note is “1 µM”, the target mRNA inhibition was found to be 22%.

For the setting “1 µM”, CAAGAGTTCTTGCAGA (sugars k3 d10 k3, PS) had a target mRNA inhibition of 17%.

As to CAAGCTACCTCCAAAT (sugars k3 d10 k3, PS), the target mRNA inhibition (1 µM) was determined as 25%.

Turning to CAAGGAAAAGCCTGAC (sugars k3 d10 k3, PS), under “1 µM”, the target mRNA inhibition was 59%.

In the case of CAATATGGGATGAGGT (sugars k3 d10 k3, PS), for the setting “1 µM”, the target mRNA inhibition is 62%.

Under “1 µM”, CAATGAGATTACCCCT (sugars k3 d10 k3, PS) gave a target mRNA inhibition of 16%.

As for CAATTATGAATCTGCA (sugars k3 d10 k3, PS), the target mRNA inhibition (1 µM) stood at 25%.

Take CAATTTACTTTCAGCC (sugars k3 d10 k3, PS): the target mRNA inhibition is 0% (0.02 µM); 18% (0.078 µM); 37% (0.313 µM); 71% (1 µM); 76% (1.25 µM); 86% (5 µM).

“CACAAGTAAGGTAAAG (sugars k3 d9 k3 e1, PS)” yielded a target mRNA inhibition (1 µM) of 55%.

In turn, CACAAGTAAGGTAAAG (sugars k3 d10 k3, PS) displayed a target mRNA inhibition (1 µM) of 54%.
